{
  "source": "ChEMBL document CHEMBL1127173",
  "about": "“EPSP synthase inhibitor deisgn III. Synthesis & evaluation of a new 5-oxamic acid analog of EPSP which incorporates a malonate ether as a 3-phosphate mimic” (Bioorg Med Chem Lett, 1993)",
  "molecular_target": "T1, 3-phosphoshikimate 1-carboxyvinyltransferase (Escherichia coli K-12, UniProt P0A6D3)",
  "T1 sequence (P0A6D3 whole entry)": "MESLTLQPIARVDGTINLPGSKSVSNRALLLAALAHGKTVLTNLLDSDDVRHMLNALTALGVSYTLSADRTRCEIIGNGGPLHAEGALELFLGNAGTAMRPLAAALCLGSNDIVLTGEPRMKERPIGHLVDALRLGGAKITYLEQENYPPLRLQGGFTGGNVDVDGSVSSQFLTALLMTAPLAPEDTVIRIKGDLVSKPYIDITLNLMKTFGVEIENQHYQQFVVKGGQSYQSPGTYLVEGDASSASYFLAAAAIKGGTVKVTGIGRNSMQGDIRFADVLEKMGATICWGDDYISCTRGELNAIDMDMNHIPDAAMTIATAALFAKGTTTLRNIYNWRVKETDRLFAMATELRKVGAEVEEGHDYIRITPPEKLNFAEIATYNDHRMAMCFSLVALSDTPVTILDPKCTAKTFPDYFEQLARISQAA",
  "experiment": "The compound was tested for the inhibition of Escherichia coli 5-enolpyruvyl-shikimate-3-phosphate synthase (EPSP).",
  "data": [
    {"smiles": "O=C(O)CO[C@@H]1CC(C(=O)O)=C[C@@H](OP(=O)(O)O)[C@H]1O", "values": [
      {"measurement": "Ki", "result": 1.5, "unit": "µM"}
    ]},
    {"smiles": "O=C(O)C(=O)N[C@@H]1CC(C(=O)O)=C[C@@H](OC(C(=O)O)C(=O)O)[C@H]1O", "values": [
      {"measurement": "Ki", "result": 5.2, "unit": "µM"}
    ]},
    {"smiles": "N[C@@H]1CC(C(=O)O)=C[C@@H](OP(=O)(O)O)[C@H]1O", "values": [
      {"measurement": "Ki", "result": 90, "unit": "µM"}
    ]},
    {"smiles": "O=C(O)C(=O)N[C@@H]1CC(C(=O)O)=C[C@@H](O)[C@H]1O", "values": [
      {"measurement": "IC50", "result": "> 10000", "unit": "µM"}
    ]}
  ]
}
